# Measurements as given in PMC7024175, “In Depth Analysis of Kinase Cross Screening Data to Identify CAMKK2 Inhibitory Scaffolds” (Molecules, 2020).
# Legend:
# CAMKK2 [1] = conditions: activity reported in the literature; cited from earlier work
# CAMKK2 [2] = target: T1, CAMKK2 (Homo sapiens, UniProt Q96RR4); assay: CAMKK2 enzyme assay (radiometric, CaMKKtide); type: biochemical; conditions: read-out: PoC (activity remaining); for remaining activity at 0.1 µM: 0.1 µM inhibitor; for remaining activity at 1 µM: 1.0 µM inhibitor
# T1 construct: made in house
# Experimental: CAMKK2 activity was determined by measuring the transfer of radiolabeled phosphate from [γ-^32P]-ATP to a synthetic peptide substrate (CaMKKtide) as previously described [49]. Briefly, purified recombinant CAMKK2 (100 pM) was incubated in assay buffer (50 mM HEPES [pH 7.4], 1 mM DTT, 0.02% [v/v] Brij-35) containing 200 μM CaMKKtide (Genscript), 100 μM CaCl2, 1 μM CaM (Sigma-Aldrich, Castle Hill, NSW, Australia) 200 μM [γ-^32P]-ATP (Perkin Elmer, Boston, MA, USA), 5 mM MgCl2 (Sigma-Aldrich, Castle Hill, NSW, Australia) and various concentrations of inhibitors (0–1 μM) in a standard 30 μl assay for 10 min at 30 °C. Reactions were terminated by spotting 15 μl onto P81 phosphocellulose paper (GE Lifesciences, Paramatta, NSW, Australia) and washing extensively in 1% phosphoric acid (Sigma-Aldrich, Castle Hill, NSW, Australia). Radioactivity was quantified by liquid scintillation counting.
# mice = conditions: mouse, in vivo; cited from earlier work
# [3] = HLM, mass spectrometry analysis; cited from earlier work
# casein kinase 2 (CK2) = target: casein kinase 2 (CK2); parameters: method as in earlier work; conditions: ref 80 (Bain et al.); cited from earlier work
# [4] = cited from earlier work
# [5] = system: aryl hydrocarbon receptor; parameters: method as in PMID 18755850; conditions: cited from earlier work
# BRD4 = conditions: cited from earlier work
# T1 sequence (Q96RR4 whole entry): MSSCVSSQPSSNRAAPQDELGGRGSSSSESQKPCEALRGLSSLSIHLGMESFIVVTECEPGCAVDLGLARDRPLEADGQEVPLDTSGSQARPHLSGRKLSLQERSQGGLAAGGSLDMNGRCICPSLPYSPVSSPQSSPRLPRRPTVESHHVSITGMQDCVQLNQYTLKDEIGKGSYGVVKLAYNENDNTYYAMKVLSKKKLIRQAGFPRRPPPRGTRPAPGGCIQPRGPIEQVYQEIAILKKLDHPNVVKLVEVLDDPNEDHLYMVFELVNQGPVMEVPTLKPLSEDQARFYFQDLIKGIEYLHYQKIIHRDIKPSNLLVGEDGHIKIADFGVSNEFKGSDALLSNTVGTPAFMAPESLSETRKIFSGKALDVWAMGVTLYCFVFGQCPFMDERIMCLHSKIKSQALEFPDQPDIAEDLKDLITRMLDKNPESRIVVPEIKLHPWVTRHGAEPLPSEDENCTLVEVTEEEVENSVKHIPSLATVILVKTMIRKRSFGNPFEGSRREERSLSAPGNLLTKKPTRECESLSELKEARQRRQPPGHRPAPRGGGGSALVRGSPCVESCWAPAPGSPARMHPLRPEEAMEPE
SMILES,pIC50 CAMKK2 reported in the literature (CAMKK2 [1]),remaining activity at 0.1 µM (CAMKK2 [2]) [%],remaining activity at 1 µM (CAMKK2 [2]) [%],"tolerability, hepatic and renal toxicity (mice)",metabolism on exposure to human liver microsomes [3],IC50 (casein kinase 2 (CK2)) [nM],aqueous solubility [4],remaining activity at 0.01 µM (CAMKK2 [2]; 0.01 µM inhibitor) [%],aryl hydrocarbon receptor binding/activation [5],BRD4 inhibition (BRD4)
O=C(O)c1ccc(-c2c[nH]c3ncc(-c4ccccc4)cc23)cc1C1CCCC1 [GSK650394],9.2,4,3,–,–,–,–,–,–,–
"O=C(O)c1ccc2c3c1cccc3c(=O)n1c3ccccc3nc21 [STO 609, 7-oxo-7H-benzimidazo[2,1-a]benz[de]isoquinoline-3-carboxylic acid]",–,56,21,well tolerated in mice without significant hepatic or renal toxicity,"metabolized to three mono-hydroxylated byproducts, principally by CYP1A2",190,poor aqueous solubility,63,binds and activates the aryl hydrocarbon receptor,–
CC[C@@H]1C(=O)N(C)c2cnc(Nc3ccc(C(=O)NC4CCN(C)CC4)cc3OC)nc2N1C1CCCC1 [BI2536],–,–,–,–,–,–,–,–,–,potent inhibitor of BRD4
